In PubChem BioAssay (NCI):
Where “and” joins values, the source holds several entries; their conditions need not be identical. Equal values may be shown once.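 Dose response: 5 concentrations. Exposure: 48 h. Format: 96-well plates. Endpoint: linear interpolation; highest concentration if not reached. Here, GI50 denotes the concentration required for 50% inhibition of growth. TGI denotes the concentration required for complete inhibition of growth.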

Key:
Experiment in all cases: inhibition of tumour cell growth, NCI panel, 48 h
SN12C renal = system: SN12C renal
NCI-H522 lung = system: NCI-H522 lung
IGROV1 ovarian = system: IGROV1 ovarian
HT29 colon = system: HT29 colon
CCRF-CEM leukemia = system: CCRF-CEM leukemia
COLO 205 colon = system: COLO 205 colon
HOP-62 NSCLC = system: HOP-62 NSCLC
UACC-62 melanoma = system: UACC-62 melanoma
SF-268 CNS = system: SF-268 CNS
HL-60(TB) leukemia = system: HL-60(TB) leukemia

Row | Structure (SMILES) | GI50 (SN12C renal) | TGI (SN12C renal) | GI50 (NCI-H522 lung) | TGI (NCI-H522 lung) | GI50 (IGROV1 ovarian) | TGI (IGROV1 ovarian) | GI50 (HT29 colon) | TGI (HT29 colon) | GI50 (CCRF-CEM leukemia) | TGI (CCRF-CEM leukemia) | GI50 (COLO 205 colon) | TGI (COLO 205 colon) | GI50 (HOP-62 NSCLC) | TGI (HOP-62 NSCLC) | GI50 (UACC-62 melanoma) [µM] | TGI (UACC-62 melanoma) [µM] | GI50 (SF-268 CNS) | TGI (SF-268 CNS) | GI50 (HL-60(TB) leukemia) | TGI (HL-60(TB) leukemia)
1 | Cc1cnc(NC(=O)Nc2cc(Br)c(C)cc2OC[C@@H]2CNCCO2)cn1 | 3.8 µM and 2.5 µM | > 10 µM and 12.1 µM | 2.1 µM and 2.46 µM | > 10 µM and 11.5 µM | 0.979 µM and 1.36 µM | > 10 µM and 17 µM | 1.95 µM and 2.59 µM | > 10 µM and 10.1 µM | 0.321 µM and 0.259 µM | 9.48 µM and 1.23 µM | 2.58 µM and 2.72 µM | 9.03 µM and 8.55 µM | 0.539 µM and 1.65 µM | > 10 µM and 14.2 µM | 1.19 | 6.82 | 3.66 µM and 2.33 µM | > 10 µM and 13.6 µM | 0.388 µM and 0.545 µM | 5.46 µM and 2.43 µM
2 | Cc1ccc(-c2csc(/N=C3\C(=O)Nc4ccccc43)n2)cc1 |  |  | 1.51 µM | 3.49 µM | 1.53 µM | 4.55 µM | 1.6 µM | 4.83 µM | 1.78 µM | 5.4 µM | 1.31 µM | 3.23 µM |  |  | 1.37 | 2.83 | 1.52 µM | 3.5 µM |  | 
3 | Cc1ccc(NC(=O)C2C(=O)N(c3ccc(C)cc3)C(=O)/C2=N\NC(N)=S)cc1 (centres undefined) |  | > 100 µM |  | > 100 µM |  | > 100 µM |  | > 100 µM |  |  |  | > 100 µM |  | > 100 µM |  | > 100 |  | > 100 µM |  | 
4 | CC(=O)[O][Ga]([Cl])[O]C(C)=O | > 100 µM | > 100 µM | > 100 µM | > 100 µM | > 100 µM | > 100 µM | > 100 µM | > 100 µM | > 100 µM | > 100 µM | > 100 µM | > 100 µM |  |  | > 100 | > 100 | > 100 µM | > 100 µM | > 100 µM | > 100 µM
5 | Cc1[nH]c2ccccc2c1C(=O)CC1(O)C(=O)Nc2ccccc21 (centres undefined) |  | > 100 µM |  |  |  | > 100 µM |  | > 100 µM |  | > 100 µM |  | > 100 µM |  | > 100 µM |  | > 100 |  | > 100 µM |  | > 100 µM
6 | Fc1ccc2[nH]cc(-c3nonc3-c3c[nH]c4ccc(Br)cc34)c2c1 | 3.13 µM | 12.5 µM | 1.85 µM | 4.47 µM | 3.41 µM | 18.3 µM | 2.01 µM | 4.03 µM | 3.07 µM | 14.9 µM |  |  | 1.89 µM | 5.07 µM | 1.72 | 4.38 | 3.01 µM | 12.4 µM | 2.94 µM | 11.6 µM
7 | COc1cc(C#Cc2ccc(=O)oc2C#Cc2ccccc2)cc(OC)c1OC | 1.75 µM | 3.5 µM | 1.73 µM | 3.57 µM | 2.18 µM | 5.7 µM | 2.44 µM | 6.6 µM | 4.02 µM | > 100 µM |  |  | 12.2 µM | 30.9 µM | 3.89 | 9.18 | 2.38 µM | 5.85 µM | 4.62 µM | 40.1 µM
8 | O=C(O)CCCCCCC[C@H]1S[C@H]1CCCCCCO |  |  |  |  |  | > 100 µM |  | > 100 µM |  |  |  | > 100 µM |  | > 100 µM |  | > 100 |  | > 100 µM |  | > 100 µM
9 | COc1ccc(C(=O)/C=C/c2ccc(C)cc2)cc1OC | 13.1 µM | 26.9 µM | 11.1 µM | 26.4 µM | 12.3 µM | 58.6 µM | 3.93 µM | 15.3 µM | 25.1 µM | 61.2 µM | 10.1 µM | 21.6 µM | 14.6 µM | 27.8 µM |  |  | 11.7 µM | 24.4 µM | 23.2 µM | 62.4 µM
10 | Nc1ccccc1C(=O)CC1OC(=O)c2ccccc21 (centres undefined) |  | > 100 µM |  | > 100 µM |  | > 100 µM |  | > 100 µM |  |  |  |  |  | > 100 µM |  | > 100 |  | > 100 µM |  | > 100 µM
11 | CNC(=O)c1ccc(N2CCN(Cc3ccc4nc(C)c(=O)[nH]c4c3F)CC2)c(F)n1 | 57.7 µM | > 100 µM | 21.2 µM | > 100 µM | > 100 µM | > 100 µM | > 100 µM | > 100 µM | > 100 µM | > 100 µM | > 100 µM | > 100 µM | 43.7 µM | > 100 µM |  |  | 43.3 µM | > 100 µM | > 100 µM | > 100 µM
12 | CC(C)=CC(=O)C/C(=N\NC(N)=S)C(=O)Nc1ccc(Cl)cc1 |  | > 100 µM |  |  |  | > 100 µM |  | > 100 µM |  | > 100 µM |  | > 100 µM |  |  |  | > 100 |  | > 100 µM |  | > 100 µM
13 | Cc1sc2nc(-c3ccncc3)c(/C=N/N=C(N)N)n2c1C | 16.9 µM | 51.6 µM |  |  |  |  | 40 µM | > 100 µM | 63 µM | > 100 µM |  |  | 33.9 µM | > 100 µM | 17.3 | 50.3 | 25.7 µM | 90.1 µM | 21.7 µM | > 100 µM
14 | Cc1nc(Nc2ccc(Cl)cc2)sc1C(=O)NNc1ccc([N+](=O)[O-])cc1[N+](=O)[O-] |  | 36.2 µM |  | 29.6 µM |  | 46.6 µM |  |  |  | 52.3 µM |  | 39.9 µM |  | 25.2 µM |  | 28.6 |  | 38.8 µM |  | 43.5 µM
15 | CC(C)=CCc1c(OC(=O)c2c(C)cc(O)cc2O)cc(CO)c(CO)c1O |  | 34.9 µM |  | 39.2 µM |  | 62.2 µM |  | 42.6 µM |  |  |  | 33.8 µM |  |  |  | 29.6 |  | 85 µM |  | 19.1 µM
16 | c1cc(N(CCn2cccn2)CCn2cccn2)cc(N(CCn2cccn2)CCn2cccn2)c1 |  | > 100 µM |  | > 100 µM |  |  |  |  |  | > 100 µM |  | > 100 µM |  | > 100 µM |  | > 100 |  | > 100 µM |  | > 100 µM
17 | COC(=O)/C=C1/CCC(C(=O)OC)N1 (centres undefined) |  | > 100 µM |  |  |  | > 100 µM |  |  |  | > 100 µM |  | > 100 µM |  | > 100 µM |  | > 100 |  | > 100 µM |  | > 100 µM
18 | COCCCNC(=O)C1C(=O)N(CCCOC)C(=O)/C1=N\N (centres undefined) |  | > 100 µM |  | > 100 µM |  |  |  | > 100 µM |  | > 100 µM |  | > 100 µM |  | > 100 µM |  | > 100 |  | > 100 µM |  | > 100 µM
19 | C#Cc1cccc(N2C(=O)CCC2=O)c1 |  | 33.6 µM |  | 11.9 µM |  | 37.9 µM |  | 34.2 µM |  | 8.11 µM |  | 24.8 µM |  |  |  | 33.8 |  | 33.1 µM |  | 10.4 µM
20 | CN(C)CCCNC(=O)c1cc(NC(=O)c2cc(NC(=O)CCc3c[nH]c4ccccc34)cn2C)cn1C | > 100 µM | > 100 µM | > 100 µM | > 100 µM | > 100 µM | > 100 µM | > 100 µM | > 100 µM | > 100 µM | > 100 µM | > 100 µM | > 100 µM |  |  | > 100 | > 100 | > 100 µM | > 100 µM | > 100 µM | > 100 µM
21 | COc1cc(NC(N)=NCCC(C)(C)Oc2ccc(C(F)(F)F)cc2)ncc1C#N | 1.85 µM | 3.35 µM | 1.47 µM | 2.9 µM | 1.8 µM | 3.48 µM | 1.64 µM | 3.03 µM |  |  | 1.58 µM | 3.06 µM | 1.75 µM | 3.2 µM | 1.78 | 3.18 | 1.72 µM | 3.31 µM |  | 
22 | CCCCCC[N+](C)(C)Cc1ccc(C[N+](C)(C)CCCCCC)cc1 |  | 12.7 µM |  |  |  | 5.38 µM |  | 16 µM |  |  |  |  |  | 8.23 µM |  | 29.7 |  | > 100 µM |  | 
23 | C=C1C(=O)O[C@@H]2C[C@@H](C)[C@@H]3C=CC(=O)[C@@]3(C)[C@@H](OC(=O)CC(=O)O[C@H]3[C@@H]4C(=C)C(=O)O[C@@H]4C[C@@H](C)[C@@H]4C=CC(=O)[C@]43C)[C@H]12 |  | 0.0763 µM |  |  |  | 0.595 µM |  | 0.223 µM |  | 0.0376 µM |  | 0.0403 µM |  | 1.18 µM |  | 0.0716 |  | 0.374 µM |  | 
24 | CCC[CH2][Sn]([CH2]CCC)([CH2]CCC)[O]c1ccc(Cl)cc1Cl | 0.142 µM | 0.303 µM | 0.149 µM | 0.297 µM | 0.083 µM | 0.223 µM | 0.118 µM | 0.293 µM |  |  | 0.16 µM | 0.31 µM | 0.146 µM | 0.294 µM | 0.162 | 0.357 | 0.128 µM | 0.301 µM | 0.129 µM | 0.415 µM
25 | [Cl][Hg][Cl] | 16.1 µM | 29.6 µM |  |  | 8.2 µM | 24.8 µM | 16.1 µM | 36.3 µM | 1.83 µM | 7.38 µM | 10.3 µM | 24.6 µM | 16.7 µM | 31.3 µM | 13.2 | 27.3 | 18.1 µM | 46.9 µM | 3.24 µM | 10.1 µM
26 | O=C1c2ccccc2C(Br)(Br)c2ccccc21 |  | > 31.6 µM |  | > 31.6 µM |  | > 31.6 µM |  | > 100 µM |  | > 31.6 µM |  | > 31.6 µM |  |  |  | > 100 |  | > 31.6 µM |  | > 31.6 µM
27 | CC(C)CCC(=O)c1ccoc1 |  | > 100 µM |  |  |  | > 100 µM |  | > 100 µM |  | > 100 µM |  | > 100 µM |  | > 100 µM |  | > 100 |  | > 100 µM |  | > 100 µM
28 | C=C(c1ccc2nc(NC(=O)OC)[nH]c2c1)c1cccs1 |  | > 100 µM |  |  |  | > 100 µM |  | > 100 µM |  |  |  | > 100 µM |  | > 77.4 µM |  | > 100 |  | > 100 µM |  | > 32.7 µM
